Experimental findings from patent publication US9901577B2, “Oxoquinazolinyl-butanamide derivatives” (MERCK PATENT GMBH, priority 2013, dated 2018) are described below.

As a reminder, the IC50 is the concentration at which inhibition is half-maximal. By EC50 is commonly meant the midpoint of the concentration-response curve.

Like-named read-outs stand apart in the source and are kept apart here.

One test concerns the target T1, TNKS1 (Homo sapiens, UniProt O95271).
T1 construct: GST-tagged Tnks-1 (1023-1327 aa, prepared in-house); made in house
Put plainly: TNKS1 activity ELISA (autoparsylation assay). In kind it is biochemical. As to the method: (§1) Description of the TNKS1 and TNKS2 ELISA Assay
(§2) Biochemical Activity Testing of TNKS 1 and 2: Activity ELISA (Autoparsylation Assay)
(§3) For analysis of autoparsylation activity of TNKS 1 and 2 an activity ELISA iss performed: In the first step GST tagged TNKS is captured on a Glutathione coated plate. Then the activity assay with biotinylated NAD is performed in the absence/presence of the compounds. During the enzymatic reaction GST tagged TNKS transfers biotinylated ADP-ribose to itself from biotinylated NAD as co-substrate. For the detection streptavidin-HRP conjugate is added that binds to the biotinylated TNKS and is thereby captured to the plates. The amount of biotinylated resp. autoparsylated TNKS is detected with a luminescence substrate for HRP. The level of the luminescence signal correlates directly with the amount of autoparsylated TNKS and therefore with activity of TNKS.
(§4) The activity ELISA is performed in 384 well Glutathione coated microtiter plates (Express capture Glutathione coated plate, Biocat, Heidelberg, Germany). The plates are pre-equilibrated with PBS. […] The plates are washed 3 times with PBS-Tween-20. The wells are blocked by incubation at room temperature for 20 minutes with 50 μl blocking buffer (PBS, 0.05% Tween-20, 0.5% BSA). Afterwards the plates are washed 3 times with PBS-Tween-20. […] The reaction is stopped by 3 times washing with PBS-Tween-20. For the detection 50 μl of 20 ng/μl Streptavidin, HRP conjugate (MoBiTec, Göttingen, Germany) in PBS/0.05% Tween-20/0.01% BSA are added and the plates are incubated for 30 minutes at room temperature. After three times washing with PBS-Tween-20 50 μl of SuperSignal ELISA Femto Maximum sensitivity substrate solution (ThermoFisherScientific (Pierce), Bonn, Germany) are added. Following a 1 minute incubation at room temperature luminescence signals are measured with an Envision multimode reader (Perkin Elmer LAS Germany GmbH) at 700 nm. The full value used is the inhibitor-free reaction. […] The inhibitory values (IC50) are determined using either the program Symyx Assay Explorer® or Condosseo® from GeneData.

A further test relates to T2, Tankyrase.
T2 construct: TNKS cellular assay; other: DLD1 cells, Axin2 increase, 24 hours
Put plainly: Measurement of cellular inhibition of Tankyrase (Axin2 level in DLD1 cells, Luminex based assay). In kind it is cell-based. The settings on record: read-out: EC50 [M] TNKS cellular assay; DLD1 cells, Axin2 increase, 24 hours. The protocol:
Measurement of Cellular Inhibition of Tankyrase
Cells of the colon carcinoma cell line DLD1 are plated in 96 well plates with 1.5×10^4 cells per well. Next day, cells are treated with a serial dilution of test compound in seven steps as triplicates with a final DMSO concentration of 0.3%. […] The amount of isolated Axin2 protein is determined in a Luminex^200 machine (Luminex Corporation) according to the manufacturer's instruction by counting 100 events per well. […] As controls cells are treated with solvent alone (neutral control) and with a Tankyrase reference inhibitor IWR-2 (3E-06 M) which refers as control for maximum increase of Axin2. For analysis, the obtained data are normalized against the untreated solvent control and fitted for determination of the EC50 values using the Assay Explorer software (Accelrys).

In another test the target is T3, TNKS2 (Homo sapiens, UniProt Q9H2K2).
T3 construct: GST-tagged Tnks-2 (873-1166 aa, prepared in-house); made in house
T3 sequence (Q9H2K2 873-1166): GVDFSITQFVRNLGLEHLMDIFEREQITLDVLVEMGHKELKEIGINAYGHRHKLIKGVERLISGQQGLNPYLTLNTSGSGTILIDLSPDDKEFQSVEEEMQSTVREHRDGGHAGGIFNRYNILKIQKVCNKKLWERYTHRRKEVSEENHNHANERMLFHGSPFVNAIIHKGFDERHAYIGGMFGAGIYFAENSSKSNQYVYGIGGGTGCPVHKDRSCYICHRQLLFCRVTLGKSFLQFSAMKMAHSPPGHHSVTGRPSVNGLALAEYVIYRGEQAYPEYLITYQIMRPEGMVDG
Put plainly: TNKS2 activity ELISA (autoparsylation assay). In kind it is biochemical. The protocol: as §1, §2, §3, §4
(ELISA stands for enzyme-linked immunosorbent assay.)

A further test has as its target T4, PARP-1 (Homo sapiens, UniProt P09874).
T4 construct: purchased Enzo Life Sciences GmbH, Lörrach, Germany
As to the kind of experiment: PARP-1 autoparsylation assay (HTRF). The format is biochemical. To be noted: His-tagged Parp-1, autoparsylation. In general terms: TR-FRET usually uses a lanthanide donor and a delayed reading to cut background.

Setting [1] is: GST-tagged Tnks-1, read-out: IC50 [M] TNKS1 ELISA.
[2] abbreviates: GST-tagged Tnks-2, read-out: IC50 [M] TNKS2 ELISA.

T4 sequence (P09874 whole entry): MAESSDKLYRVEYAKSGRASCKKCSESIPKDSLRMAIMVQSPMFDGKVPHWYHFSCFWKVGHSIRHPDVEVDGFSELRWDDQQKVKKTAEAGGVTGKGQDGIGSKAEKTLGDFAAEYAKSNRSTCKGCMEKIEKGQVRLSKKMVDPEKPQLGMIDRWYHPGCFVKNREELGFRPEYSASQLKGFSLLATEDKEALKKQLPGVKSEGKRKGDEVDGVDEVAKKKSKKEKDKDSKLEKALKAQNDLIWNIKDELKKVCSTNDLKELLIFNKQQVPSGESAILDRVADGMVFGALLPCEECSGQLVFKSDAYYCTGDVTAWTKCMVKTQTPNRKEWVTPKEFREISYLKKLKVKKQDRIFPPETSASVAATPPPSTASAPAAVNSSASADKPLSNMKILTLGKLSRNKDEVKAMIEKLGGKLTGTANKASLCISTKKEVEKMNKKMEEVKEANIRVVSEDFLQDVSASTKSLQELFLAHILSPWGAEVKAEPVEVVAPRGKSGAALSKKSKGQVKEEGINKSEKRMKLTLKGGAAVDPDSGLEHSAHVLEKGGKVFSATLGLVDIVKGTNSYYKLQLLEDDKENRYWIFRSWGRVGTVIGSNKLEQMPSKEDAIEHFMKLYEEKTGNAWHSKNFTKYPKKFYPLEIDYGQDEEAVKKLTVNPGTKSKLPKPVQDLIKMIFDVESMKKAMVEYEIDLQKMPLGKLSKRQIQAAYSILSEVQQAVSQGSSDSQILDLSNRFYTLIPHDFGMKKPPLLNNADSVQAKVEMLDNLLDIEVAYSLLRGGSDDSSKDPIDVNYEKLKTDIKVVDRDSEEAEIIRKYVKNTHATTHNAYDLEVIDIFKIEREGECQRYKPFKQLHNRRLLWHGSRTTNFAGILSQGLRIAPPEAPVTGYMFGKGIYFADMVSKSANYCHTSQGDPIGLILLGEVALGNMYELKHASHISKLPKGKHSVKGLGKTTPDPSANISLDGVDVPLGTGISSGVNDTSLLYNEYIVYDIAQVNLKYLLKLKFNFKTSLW
T1 sequence (O95271 1023-1327): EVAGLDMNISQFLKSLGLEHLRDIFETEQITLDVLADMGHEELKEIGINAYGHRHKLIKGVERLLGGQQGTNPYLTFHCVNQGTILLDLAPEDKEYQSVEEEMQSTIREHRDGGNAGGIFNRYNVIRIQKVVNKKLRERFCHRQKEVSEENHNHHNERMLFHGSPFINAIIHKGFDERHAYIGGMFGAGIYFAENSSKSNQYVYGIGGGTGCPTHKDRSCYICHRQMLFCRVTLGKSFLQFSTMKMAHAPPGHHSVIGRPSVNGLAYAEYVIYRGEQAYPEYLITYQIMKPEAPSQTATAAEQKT

As to `COCCn1cc(-c2ccc(C(=O)C3CCN(C(=O)CCCc4nc5ccccc5c(=O)[nH]4)CC3)cc2)cn1` [Compound A11, 2-[4-(4-{4-[1-(2-methoxy-ethyl)-1H-pyrazol-4-yl]-benzoyl}-piperidin-1-yl)-4-oxo-butyl]-3H-quinazolin-4-one], the concentration for half-maximal inhibition (IC50) at TNKS1 (setting [1]) is 5.8e-11 M; on TNKS2 (setting [2]) it was 1.2e-10 M; against PARP-1, 300 nM. The EC50 with Tankyrase stood at 7.3e-09 M.

On to `O=C(c1ccc(F)cc1)C1CCN(C(=O)CCCc2nc3ccccc3c(=O)[nH]2)CC1` [Compound A18, 2-{4-[4-(4-Fluoro-benzoyl)-piperidin-1-yl]-4-oxo-butyl}-3H-quinazolin-4-one], for which the IC50 on TNKS1 (setting [1]) was 7e-10 M; at TNKS2 (setting [2]), 6.1e-10 M; against PARP-1, 2100 nM. Further, the EC50 in the test on Tankyrase was 2.1e-08 M.

`COc1ccc(C(=O)C2CCN(C(=O)CCCc3nc4c(C)cc(F)cc4c(=O)[nH]3)CC2)cc1C` [Compound A15, 6-fluoro-2-[4-[4-(4-methoxy-3-methyl-benzoyl)-1-piperidyl]-4-oxo-butyl]-8-methyl-3H-quinazolin-4-one]: the IC50 turned out to be 8.8e-11 M at TNKS1 (setting [1]), 7.4e-11 M on TNKS2 (setting [2]) and 64 nM against PARP-1. In the test with Tankyrase, the EC50 came out at 1.4e-09 M.

`O=C(c1ccc(-c2cnn(CCN3CCCC3)c2)cc1)C1CCN(C(=O)CCCc2nc3ccccc3c(=O)[nH]2)CC1` [Compound A12, 2-[4-oxo-4-(4-{4-[1-(2-pyrrolidin-1-yl-ethyl)-1H-pyrazol-4-yl]-benzoyl}-piperidin-1-yl)-butyl]-3H-quinazolin-4-one]: the half-maximal inhibitory concentration (IC50) was found to be 2.5e-10 M on TNKS1 (setting [1]), 3.5e-10 M at TNKS2 (setting [2]) and 650 nM on PARP-1. Further, in the test on Tankyrase, the EC50 worked out at 6.8e-09 M.

For the molecule `COc1ccc(C(=O)C2CCN(C(=O)CCCc3nc4ccccc4c(=O)[nH]3)CC2)cc1C` [Compound A13, 2-[4-[4-(4-methoxy-3-methyl-benzoyl)-1-piperidyl]-4-oxo-butyl]-3H-quinazolin-4-one], the half-maximal inhibitory concentration (IC50) on TNKS1 (setting [1]) came out at 1e-10 M; on TNKS2 (setting [2]), 1.3e-10 M; on PARP-1, 990 nM. For the same molecule, the EC50 in the test with Tankyrase was determined as 8.6e-10 M.

As for `N#Cc1ccc(OC2CCN(C(=O)CCCc3nc4c(F)cccc4c(=O)[nH]3)CC2)cc1` [Compound A27, 4-{1-[4-(8-Fluoro-4-oxo-3,4-dihydro-quinazolin-2-yl)-butyryl]-piperidin-4-yloxy}-benzonitrile], the concentration for half-maximal inhibition (IC50) is 1.5e-07 M at TNKS1, 8.6e-08 M against TNKS2 and 1.3 nM against PARP-1. The EC50 in the test on Tankyrase amounted to 4.4e-07 M.

Take `COc1ccc(C(=O)C2CCN(C(=O)CCCc3nc4ccccc4c(=O)[nH]3)CC2)cc1F` [Compound A8, 2-{4-[4-(3-fluoro-4-methoxy-benzoyl)-piperidin-1-yl]-4-oxo-butyl}-3H-quinazolin-4-one]: the values for the IC50 at TNKS1 (setting [1]), on TNKS2 (setting [2]) and on PARP-1 were 8.5e-11 M, 1.5e-10 M and 680 nM, respectively. Moreover, the EC50 in the test on Tankyrase was 3.4e-09 M.

As for `CCn1cc(-c2ccc(C(=O)C3CCN(C(=O)CCCc4nc5ccccc5c(=O)[nH]4)CC3)cc2)cn1` [Compound A10, 2-(4-{4-[4-(1-ethyl-1H-pyrazol-4-yl)-benzoyl]-piperidin-1-yl}-4-oxo-butyl)-3H-quinazolin-4-one], the IC50 was found to be 1e-10 M against TNKS1, 1.6e-10 M on TNKS2 and 100 nM against PARP-1. In the test with Tankyrase, the concentration giving a half-maximal response (EC50) was 4.9e-09 M.

Regarding `Nc1ncc(C2CCN(C(=O)CCCc3nc4ccccc4c(=O)[nH]3)CC2)cc1-c1ncccn1` [Compound A30, 2-[4-(6-Amino-5-pyrimidin-2-yl-3′,4′,5′,6-tetrahydro-2′H-[3,4]bipyridinyl-1′-yl)-4-oxo-butyl]-3H-quinazolin-4-one], the half-maximal inhibitory concentration (IC50) was found to be 4.1e-10 M against TNKS1, 3e-10 M against TNKS2 and 670 nM on PARP-1. Also, the EC50 in the test on Tankyrase was determined as 1.2e-09 M.

With `Cn1cc(C(=O)C2CCN(C(=O)CCCc3nc4ccccc4c(=O)[nH]3)CC2)cn1` [Compound A41, 2-{4-[4-(1-Methyl-1H-pyrazole-4-carbonyl)-piperidin-1-yl]-4-oxo-butyl}-3H-quinazolin-4-one], the half-maximal inhibitory concentration (IC50) at TNKS1 (setting [1]) was 5.8e-10 M; on TNKS2 (setting [2]) it was 3.3e-10 M; against PARP-1, 2100 nM. In the test on Tankyrase, the concentration giving a half-maximal response (EC50) amounted to 9e-09 M.

For `COc1ccc(C(=O)C2CCN(C(=O)CCCc3nc4c(C)cc(F)cc4c(=O)[nH]3)CC2)cc1` [Compound A4, 6-fluoro-2-{4-[4-(4-methoxy-benzoyl)-piperidin-1-yl]-4-oxo-butyl}-8-methyl-3H-quinazolin-4-one], the results for the IC50 at TNKS1 (setting [1]), at TNKS2 (setting [2]) and against PARP-1 were 6.6e-11 M, 8.9e-11 M and 170 nM, respectively. The concentration giving a half-maximal response (EC50) in the test with Tankyrase is 5.6e-10 M.

`Nc1ncc(C2CCN(C(=O)CCCc3nc4c(F)cccc4c(=O)[nH]3)CC2)cc1-c1ncccn1` [Compound A35, 2-[4-(6-Amino-5-pyrimidin-2-yl-3′,4′,5′,6′-tetrahydro-2′H-[3,4]bipyridinyl-1′-yl)-4-oxo-butyl]-8-fluoro-3H-quinazolin-4-one]: the concentration for half-maximal inhibition (IC50) on TNKS1 (setting [1]) came out at 4.9e-10 M; on TNKS2 (setting [2]), 1.6e-10 M; against PARP-1, 1400 nM. In addition, the EC50 with Tankyrase amounted to 1.8e-09 M.

Consider `COc1ccc(C(=O)C2CCN(C(=O)CCCc3nc4ccccc4c(=O)[nH]3)CC2)cn1` [Compound A16, 2-{4-[4-(6-Methoxy-pyridine-3-carbonyl)-piperidin-1-yl]-4-oxo-butyl}-3H-quinazolin-4-one], for which the concentration for half-maximal inhibition (IC50) on TNKS1 (setting [1]) was 1.1e-09 M; at TNKS2 (setting [2]), 7.5e-10 M; on PARP-1, 2700 nM. Moreover, in the test with Tankyrase, the half-maximal effective concentration (EC50) amounted to 1e-08 M.

In the case of `O=C(c1ccccc1)C1CCN(C(=O)CCCc2nc3c(F)cc(F)cc3c(=O)[nH]2)CC1` [Compound A6, 2-[4-(4-benzoyl-piperidin-1-yl)-4-oxo-butyl]-6,8-difluoro-3H-quinazolin-4-one], the IC50 on TNKS1 (setting [1]) is 3.8e-10 M; at TNKS2 (setting [2]), 9.3e-10 M; at PARP-1, 650 nM.

Regarding `O=C(c1ccc(F)cc1)C1CCN(C(=O)CCCc2nc3ccc(F)cc3c(=O)[nH]2)CC1` [Compound A23, 6-Fluoro-2-{4-[4-(4-fluoro-benzoyl)-piperidin-1-yl]-4-oxo-butyl}-3H-quinazolin-4-one], the concentration for half-maximal inhibition (IC50) was 8.4e-10 M on TNKS1 (setting [1]), 5.9e-10 M on TNKS2 (setting [2]) and 650 nM on PARP-1.

As for `Cn1ccnc1C(=O)C1CCN(C(=O)CCCc2nc3ccccc3c(=O)[nH]2)CC1` [Compound A40, 2-{4-[4-(1-methyl-1H-imidazole-2-carbonyl)-piperidin-1-yl]-4-oxo-butyl}-3H-quinazolin-4-one], the IC50 at TNKS1 came out at 8.2e-08 M; at TNKS2 (setting [2]), 6.1e-08 M; on PARP-1 it was 3200 nM.

`CC(C)(O)c1ccc(C(=O)C2CCN(C(=O)CCCc3nc4ccc(F)cc4c(=O)[nH]3)CC2)cc1` [Compound A39, 6-Fluoro-2-(4-{4-[4-(1-hydroxy-1-methyl-ethyl)-benzoyl]-piperidin-1-yl}-4-oxo-butyl)-3H-quinazolin-4-one]: the results for the half-inhibitory concentration (IC50) at TNKS1 (setting [1]) and against PARP-1 were 9.6e-09 M and 270 nM, respectively.

For `CC(C)(O)c1ccc(C(=O)C2CCN(C(=O)CCCc3nc4ccccc4c(=O)[nH]3)CC2)cc1` [Compound A38, 2-(4-{4-[4-(1-Hydroxy-1-methyl-ethyl)-benzoyl]-piperidin-1-yl}-4-oxo-butyl)-3H-quinazolin-4-one], the values for the concentration for half-maximal inhibition (IC50) at TNKS1 (setting [1]), at TNKS2 (setting [2]) and against PARP-1 were 2.2e-08 M, 8.4e-09 M and 430 nM, respectively.

Turning to `CC(C)(O)c1ccc(C(=O)C2CCN(C(=O)CCCc3nc4c(F)cccc4c(=O)[nH]3)CC2)cc1` [Compound A37, 8-Fluoro-2-(4-{4-[4-(1-hydroxy-1-methyl-ethyl)-benzoyl]-piperidin-1-yl}-4-oxo-butyl)-3H-quinazolin-4-one], the values for the IC50 on TNKS1 (setting [1]) and on PARP-1 were 1.1e-08 M and 4300 nM, respectively.
